Experimental data reported in a compilation of properties of binary mixtures (doi:10.1007/s10953-018-0729-9).

Assay: xn = mol fraction of the nth substance listed
Details: 101.3 kPa

CCCC[n+]1ccn(C)c1.F[P-](F)(F)(F)(F)F + O=C1CCCN1
x1 = 1
Details	speed of sound [m/s]
303.15 K	1431.7
308.15 K	1419.8
313.15 K	1408.2
318.15 K	1396.8
323.15 K	1385.6

O=C1CCCN1 + CCCC[n+]1ccn(C)c1.F[P-](F)(F)(F)(F)F
speed of sound [m/s]
Details	303.15 K	308.15 K	313.15 K	318.15 K	323.15 K
x2 = 0	1618	–	1585.4	1569.4	–
x2 = 0.0494	1584.7	–	1553.7	1538.4	1523.2
x2 = 0.1025	1575.2	1560	1545.1	1530.3	–
x2 = 0.1503	1566.5	1551.8	1537.3	1522.9	1508.6
x2 = 0.2215	1553.8	–	1525.6	1511.8	1498
x2 = 0.3376	1532.9	1519.5	1506.3	1493.2	1480.2
x2 = 0.4502	1512.7	1499.9	–	1474.8	1462.4
x2 = 0.5654	1492	1479.6	–	1455.4	1443.5
x2 = 0.6527	1476.3	1464.2	1452.3	1440.5	1428.8
x2 = 0.7421	–	1448.2	1436.5	1424.8	1413.4
x2 = 0.8295	1446.5	1434.6	1422.9	–	–
x2 = 0.8622	1442.6	1430.7	–	1407.5	1396.1
x2 = 0.9019	1438.5	1426.6	1414.8	1403.3	1391.9
x2 = 0.9495	–	1423	1411.2	1399.6	–
